From patent US10028971B2, “Compositions and methods for treating psychiatric disorders” (GOSFORTH CENTRE (HOLDINGS) PTY LTD., priority 2008, dated 2018)
Read-outs that look alike come from different tables or passages of the source.

Tests used:
[1] = test system: individuals with MCI or dementia; settings: cited from earlier work; for effect in mild cognitive impairment (reports): individuals with MCI
[2] = test system: individuals with MCI or dementia; test: Mild cognitive impairment and dementia, clinical cases (Developmental Eye Movement test, Alzheimer's Quick Test); format: in vivo, human; settings: person
Excerpt: A married person with a history of good cognitive functioning until last 4-5 yrs when noted by both their spouse and themself to becoming increasingly socially withdrawn primarily because of the difficulty in listening without distraction during social interaction, no known childhood or adult history of prior attentional or impulsive disorders. It has been clinically observed by the inventor that individuals treated with low dose antiepileptic were enhanced in their ability to discriminate irrelevant from the relevant sound was enhanced. […] On ceasing the medication there was an initial improvement again over the preceding 3 to 7 days followed by a loss of the therapeutic effects and returned to their pre-medication function. On the ressumption of the 12.5 mg phenytoin there was a return of the improved function. On this second occasion they were more aware of the benefits and also the gradual return of the detrimental clinic effects. During the clinical assessment it was noted that they had more flexibility in their conversation and more natural use of non-verbal cues, there was also enhancement of their egocentric gaze. […] These benefits were also noted by their spouse. […] Again these medications were ceased resulting in a loss of associated benefits. With each trial of medication they became more apparent to the patient and their spouse of the benefits of the therapy. They attempted whilst not taking the medication to communicate and follow the conversation in a way that they had been able to whilst on treatment. They found when attempting to do so they became mentally exhausted and unable to sustain the effort required for the interaction. The improvements noted clinically and also recorded using the Developmental Eye Movement test and a measure of parietal function the Alzheimer's Quick Test. Married person diagnosed with fronto-temporal dementia. they had been assessed by neuropsychologist, and geriatrician and psychiatrist to confirm this diagnosis. […] They then relied on others to make decisions for […]. They had gradually become socially disengaged finding such interactions distressing and demanding. […] Despite ongoing difficulties of word finding they were able to socially interact more spontaneously than they had done for many years. And have confidence in areas of conversation that they previously would have avoided. […] On two occasions the medication was withdrawn and then reintroduced, due to the experimental nature of treatment and concern that there might be a significant placebo effect. […] Following the subsequent reduction there was a return of the improvement previously noted.

adults with ADHD = settings: for group outcome of combination therapy: adults with ADHD
Experimental: In the clinical setting a number of adults with ADHD experienced a combination therapy of stimulant medication (dexamphetamine) in combination with sodium valproate (VPA). The initial dosages used were from 15 to 70 mg/day of dexamphetamine and from 100 to 700 mg/day of VPA (Epilim) (=approximately 2 to 10 mg/kg/day).
The determination of the dose for the dexamphetamine was undertaken in a clinical sensitive open label manner. The dose was titrated upwards dependent on the clinical response and the freedom from side-effects. The dose range was between 15 and 70 mg a day. The frequency of the dosing also varied dependent upon the clinical response. The usual dose interval was between two to four hours. This dosing adjustment took place prior to the commencement of the sodium valproate. The sodium valproate medication was initiated once a day at 50 mg tablet or elixir and titrated upwards dependent on response, but not more than one increase every three days. The dose was given as a once or twice a day regime. During the titration phase, if clinically possible, no other adjustments to the pharmacotherapy were undertaken.

[3] = test system: individuals with developmental dyspraxia / poor coordination; test: Treatment of developmental dyspraxia, clinical observation; format: in vivo, human; settings: person, ADHD
Excerpt: Many of the individuals treated at this clinic, with a diagnosis of ADHD and/or pervasive development disorder such Asperger's Syndrome or autism also present with symptoms consistent with a diagnosis of a developmental coordination disorder. They are often described as ‘unco’ (unco-ordinated) by their peers and experience victimization, poor self-esteem and frustration as a consequence of their poor coordination. […] Individuals have described a sense of having more time to coordinate movements and to understand and integrate their own activity appropriately within a team sport such as soccer, which has previously eluded them. Individuals have felt frustration at being able to practise repeatedly an activity or skill only to be unable to put it into practice when required, within the play of a match. It is proposed that individuals were previously unable to process and plan their own coordination but remain aware of the general activity in which they were participating.

[4] = test system: Parkinson's disease patient; test: Parkinson's disease clinical example with infrared eye tracking; format: in vivo, human; settings: 12.5 mg phenytoin
Excerpt: Clinical example person with a ten-year history of Parkinson's disease. Moderate to severe motor symptoms with muscle rigidity, resting tremor, brady-[…] slowing of speech. No evidence of dementia or depression. […] An enhanced initiation of movement. Also described an improved perception of efficiency in thought and action. No evidence of loss of efficacy of medication. Using infrared eye tracking technology it was noted that the fixations and […] movements were enhanced after treatment. Measurements were undertaken both whilst silent and speaking with and without eye contact with the investigator. Based on these investigations in Parkinson's disease and also in mild cognitive impairment and dementia we consider that condition is described as Parkinson plus diseases, including multiple system atrophy (MSA), progressive supranuclear palsy (PSP), corticobasal degeneration (CBD), and dementia with Lewy bodies (DLB)s may also benefit from the addition of a low dose AED with and without a psychostimulant.

[5] = test system: mood stabilisation or epileptic symptoms or events; settings: cited from earlier work; for Minimum Dose/day effective for mood stabilisation or treatment of epileptic symptoms or events: usual minimum anti-convulsant dose per day
[6] = test system: adherence to medication regime; settings: person, anxiety and depression, no ADHD; 25 mg phenytoin
Excerpt: As a result, taking medication becomes an automatic activity which doesn't require a high level of attention and motivation.
The individual experiences an improvement in the ability to efficiently and effectively attend to a task in hand, without also needing to expend extra cognitive effort to remember which medication to take and at what times.

[7] = test system: individual not meeting the full criteria for ADHD; test: Subthreshold ADHD, clinical case (Example 21); format: in vivo, human; settings: person; topiramate 12.5 mg daily added to dexamphetamine 2.5 mg daily
[8] = test system: patients with an eating disorder and ADHD; test: Treatment of eating disorders, clinical observation; settings: person
Excerpt: The use of sodium valproate at low dose levels can then be titrated to a level that does effectively control these thoughts. This may or may not be at the therapeutic dose used in the treatment of bipolar disorder.

[9] = test system: patients with substance addiction; test: Treatment of addictions, clinical observation; format: in vivo, human; settings: person; dexamphetamine alone over 6 months
Excerpt: Addiction to amphetamines poses a number of unique challenges.

[10] = test system: patients with substance addiction; settings: psychostimulants alone; cited from earlier work
[11] = test system: patients with an eating disorder and ADHD; settings: double-blind studies; effects thought only short-lived; cited from earlier work
[12] = in vivo; cited from earlier work
[13] = fronto-temporal dementia, 25 mg phenytoin

## COc1cc2c(cc1OC)C(=O)C(CC1CCN(Cc3ccccc3)CC1)C2 (stereo not shown) [Donepezil]
[1]; human, in vivo
  side effects in MCI (reports): significant side effects
[1]
  effect in mild cognitive impairment (reports): only minor, short-term benefits

## O=C1NC(=O)C(c2ccccc2)(c2ccccc2)N1 [Phenytoin]
[2]; [13]
  clinical outcome (case): remarkable improvement in their cognitive functioning
  rapid automatic naming and Alzheimer's Quick Test (AQT): significant improvement in their functioning
[2]; social withdrawal, phenytoin 12.5 mg daily
  clinical outcome (case): able to socially interact in a more meaningful way
[2]; phenytoin 10 mg added to low dose sodium valproate
  clinical outcome (case): more robust improvement on either medication alone
[2]; phenytoin 50 mg for two weeks
  clinical outcome (case): loss of the therapeutic benefit and general impairment
[2]; phenytoin increased to 25 mg, over 6 to 8 weeks
  clinical outcome (case): loss of the benefits
Adults with ADHD; 50 mg phenytoin dose with dexamphetamine, many clinical situations
  course of benefit on continued dosing: loss of benefit of the therapy over the proceeding weeks and months
Adults with ADHD; adult female, phenytoin 50 mg added to sodium valproate 100 mg and methylphenidate
  clinical outcome (case): Pervasive and robust psychosocial improvement
Adults with ADHD; Methylphenidate 40 mg/d, Valproate 100 mg/d, Phenytoin 50 mg/d
  group outcome of combination therapy: successfully treated
Adults with ADHD; dexamphetamine 20-45 mg/d, Valproate 100-400 mg/d, Phenytoin 12.5-50 mg/d
  group outcome of combination therapy: successfully treated
Adults with ADHD; dexamphetamine 20-75 mg/d with Phenytoin 1-75 mg/d
  group outcome of combination therapy: successfully treated
Adults with ADHD; methylphenidate 15-105 mg/d with Phenytoin 25-50 mg/d
  group outcome of combination therapy: successfully treated
Adults with ADHD; person, ADHD, phenytoin 30 mg added to dexamphetamine
  clinical outcome (case): improvement in ability to read and sustain enjoyable conversation
Adults with ADHD; person, 12.5 mg phenytoin added to sodium valproate 100 mg and dexamphetamine
  clinical outcome (case): Significant improvement in ability to maintain egocentric eye gaze and cognition
Adults with ADHD; person, 50 mg phenytoin added to methylphenidate 120 mg per day
  clinical outcome (case): improved cognition with increased confidence in interpersonal relationships
Adults with ADHD; person, phenytoin 20 mg per day added to sodium valproate and dexamphetamine
  clinical outcome (case): further improvement of the sequencing and organisation of thoughts
Adults with ADHD; person, phenytoin 50 mg later 25 mg added to dexamphetamine and sodium valproate 200 mg
  clinical outcome (case): immediate improvement of stability of affect and clarity of thinking
[3]; phenytoin 25 mg added to dexamphetamine 25 mg, atomexetine 60 mg, sodium valproate 150 mg
  clinical outcome (case): improvement in coordination
[4]; infrared eye tracking
  fixations and saccadic eye movements after treatment: enhanced
[4]; person, ten-year Parkinson's disease
  clinical outcome (case): improved verbal fluency, enhanced and less effortful social connection and eye contact
[4]; person
  time to noted improvement: 2 to 3 days
[5]
  Minimum Dose/day effective for mood stabilisation or treatment of epileptic symptoms or events: 200 mg
[6]
  clinical outcome (case): improved self organisation and ability to plan ahead without effort

## CCN(C)C(=O)Oc1cccc([C@H](C)N(C)C)c1 [Rivastigmine]
[1]
  effect in mild cognitive impairment (reports): failed to stop or slow progression to Alzheimer's disease or improve cognitive function

## CC1(C)O[C@@H]2[C@@H](CO[C@@]3(COS(N)(=O)=O)OC(C)(C)O[C@@H]23)O1 [Topiramate, 2,3:4,5-Bis-O-(1-methylethylidene)-beta-D-fructopyranose sulfamate]
[7]
  clinical outcome (case): significant improvement
Adults with ADHD; dexamphetamine 30-80 mg/d with Topiramate 12.5-50 mg/d
  group outcome of combination therapy: successfully treated
Adults with ADHD; median 40 mg/d Dexamphetamine, 120 mg/d Sodium Valproate, 25 mg/d Topiramate
  group outcome of combination therapy: successfully treated
Adults with ADHD; methylphenidate 40-55 mg/d with Topiramate 12-37.5 mg/d
  group outcome of combination therapy: successfully treated
Adults with ADHD; person, ADHD, 25 mg topiramate added to dexamphetamine 30 mg
  clinical outcome (case): ability to complete tasks, improvement in cognition
Adults with ADHD; person, 25 mg topiramate added to oros extended release methylphenidate
  clinical outcome (case): improved organisation, cognition, enhanced interpersonal functioning, and ability to sustain egocentric eye gaze
Adults with ADHD; person, topiramate 25 mg added to sodium valproate 300 mg and dexamphetamine 20 mg
  clinical outcome (case): Further improvements in interpersonal professional functioning
[5]; in vivo
  target dose for controlling epileptic seizures: 100 to 500 mg/day
[5]
  Minimum Dose/day effective for mood stabilisation or treatment of epileptic symptoms or events: 100 mg
[8]; 25 mg topiramate added to 45 mg extended release methylphenidate
  clinical outcome (case): improved organisation, enhanced interpersonal functioning, improved cognition and able to sustain egocentric eye gaze

## C[C@H](N)Cc1ccccc1 [dexamphetamine]
[9]
  stability and functional benefit (case): not noted
[10]
  use alone in treatment of amphetamine and cocaine addiction: unhelpful

## COC(=O)C(c1ccccc1)C1CCCCN1 (stereo not shown) [methylphenidate]
Adults with ADHD; adult female, ADHD, anorexia nervosa bulimic subtype, methylphenidate alone
  clinical outcome (case): reasonable improvement
Adults with ADHD; person 120 kg, ADHD, methylphenidate 120 mg per day alone
  clinical outcome (case): Remain disorganized and inconsistent with taking medication
Adults with ADHD; person, ADHD, methylphenidate 55 mg
  clinical outcome (case): improvement in their symptoms of impaired attention and concentration
Adults with ADHD; person, anorexia nervosa, ADHD, methylphenidate alone
  clinical outcome (case): inconsistent
[11]
  effect on bulimic symptoms: suppression of bulimic symptoms
[3]; autism, developmental dyspraxia, methylphenidate max 95 mg daily
  clinical outcome (case): Limited improvement with poor compliance
[8]; anorexia nervosa, ADHD, methylphenidate, 45 mg extended release
  clinical outcome (case): inconsistent
[12]
  duration of action: 2 to 4 h
